Legend:
[1] = system: blow fly larvae (LBF); experiment: In vitro efficacy, exposure of LBF to chemically added serum samples
From the text: ^1 Percent insect mortality following 24 to 48 hrs. in vitro exposure
to chemically added serum samples

[2] = system: larval blow fly; experiment: Insecticidal assay in blood of sheep challenged with Haemonchus contortus, larval blow fly; assay type: in vivo
Protocol: Blood is drawn from the guinea pigs at 30 minutes except as noted, and the samples of blood are centrifuged. Dental wicks are saturated with the blood serum, and then exposed in Petri dishes to adult stable flies; blow fly larvae are exposed in test tubes. After 24 and 48 hours, the insects are examined, and the number of dead are counted. The results of the tests are recorded as the percent of the insects which are killed.
Tests are carried out in sheep using the test method described supra in the Guinea Pig Test description. […]
^b Amount (mg/kg) times number of doses administered
^c Times postadministration at which blood is drawn

CC[C@H]1CCC[C@H](O[C@H]2CC[C@H](N(C)C)[C@@H](C)O2)[C@@H](C)C(=O)C2=C[C@@H]3[C@@H](C=C[C@@H]4C[C@@H](O[C@@H]5O[C@@H](C)[C@H](OC)[C@@H](OC)[C@H]5OC)C[C@@H]34)[C@@H]2CC(=O)O1 [A83543A]
Percent insect mortality ([1]; 1.25 ppm, 48 hr): 100% | Percent insect mortality ([1]; 2.5 ppm, 24 hr): 100% | Percent insect mortality ([1]; 2.5 ppm, 48 hr): 100% | Percent insect mortality ([1]; 5 ppm, 24 hr): 100% | Percent insect mortality ([1]; 5 ppm, 48 hr): 100% | Percent insect mortality ([1]; 10 ppm, 24 hr): 100% | Percent insect mortality ([1]; 10 ppm, 48 hr): 100% | Percent Insecticide Mortality ([2]; 1 × 1 mg/kg IV, 35 min, L, 24-hour exposure): 25% | Percent Insecticide Mortality ([2]; 1 × 1 mg/kg IV, 35 min, L, 48-hour exposure): 25% | Percent Insecticide Mortality ([2]; 1 × 1 mg/kg IV, 5 hr, L, 24-hour exposure): 10% | Percent Insecticide Mortality ([2]; 1 × 1 mg/kg IV, 5 hr, L, 48-hour exposure): 10% | Percent Insecticide Mortality ([2]; 1 × 1 mg/kg IV, Day 0, L, 24-hour exposure): 0% | Percent Insecticide Mortality ([2]; 1 × 1 mg/kg IV, Day 0, L, 48-hour exposure): 0% | Percent Insecticide Mortality ([2]; 1 × 1 mg/kg IV, Day 1, L, 24-hour exposure): 0% | Percent Insecticide Mortality ([2]; 1 × 1 mg/kg IV, Day 1, L, 48-hour exposure): 0% | Percent Insecticide Mortality ([2]; 1 × 1 mg/kg IV, Day 2, L, 24-hour exposure): 0% | Percent Insecticide Mortality ([2]; 1 × 1 mg/kg IV, Day 2, L, 48-hour exposure): 0% | Percent Insecticide Mortality ([2]; 1 × 1 mg/kg IV, Day 3, L, 24-hour exposure): 0% | Percent Insecticide Mortality ([2]; 1 × 1 mg/kg IV, Day 3, L, 48-hour exposure): 0% | Percent Insecticide Mortality ([2]; 1 × 1 mg/kg IV, Day 4, L, 24-hour exposure): 0% | Percent Insecticide Mortality ([2]; 1 × 1 mg/kg IV, Day 4, L, 48-hour exposure): 0% | Percent Insecticide Mortality ([2]; 1 × 1 mg/kg IV, Day 5, L, 24-hour exposure): 0% | Percent Insecticide Mortality ([2]; 1 × 1 mg/kg IV, Day 5, L, 48-hour exposure): 0% | Percent Insecticide Mortality ([2]; 25 × 2 mg/kg IR, 35 min, L, 24-hour exposure): 0% | Percent Insecticide Mortality ([2]; 25 × 2 mg/kg IR, 35 min, L, 48-hour exposure): 0% | Percent Insecticide Mortality ([2]; 25 × 2 mg/kg IR, 5 hr, L, 24-hour exposure): 25% | Percent Insecticide Mortality ([2]; 25 × 2 mg/kg IR, 5 hr, L, 48-hour exposure): 50% | Percent Insecticide Mortality ([2]; 25 × 2 mg/kg IR, Day 0, L, 24-hour exposure, 0 min): 0% | Percent Insecticide Mortality ([2]; 25 × 2 mg/kg IR, Day 0, L, 48-hour exposure): 0% | Percent Insecticide Mortality ([2]; 25 × 2 mg/kg IR, Day 1, L, 24-hour exposure): 100% | Percent Insecticide Mortality ([2]; 25 × 2 mg/kg IR, Day 1, L, 48-hour exposure): 100% | Percent Insecticide Mortality ([2]; 25 × 2 mg/kg IR, Day 2, L, 24-hour exposure): 90% | Percent Insecticide Mortality ([2]; 25 × 2 mg/kg IR, Day 2, L, 48-hour exposure): 100% | Percent Insecticide Mortality ([2]; 25 × 2 mg/kg IR, Day 3, L, 24-hour exposure): 90% | Percent Insecticide Mortality ([2]; 25 × 2 mg/kg IR, Day 3, L, 48-hour exposure): 100% | Percent Insecticide Mortality ([2]; 25 × 2 mg/kg IR, Day 4, L, 24-hour exposure): 60% | Percent Insecticide Mortality ([2]; 25 × 2 mg/kg IR, Day 4, L, 48-hour exposure): 90% | Percent Insecticide Mortality ([2]; 25 × 2 mg/kg IR, Day 5, L, 24-hour exposure): 50% | Percent Insecticide Mortality ([2]; 25 × 2 mg/kg IR, Day 5, L, 48-hour exposure): 75% | Percent Insecticide Mortality ([2]; 50 × 1 mg/kg IP, 35 min, L, 24-hour exposure): 0% | Percent Insecticide Mortality ([2]; 50 × 1 mg/kg IP, 35 min, L, 48-hour exposure): 10% | Percent Insecticide Mortality ([2]; 50 × 1 mg/kg IP, 5 hr, L, 24-hour exposure): 10% | Percent Insecticide Mortality ([2]; 50 × 1 mg/kg IP, 5 hr, L, 48-hour exposure): 10% | Percent Insecticide Mortality ([2]; 50 × 1 mg/kg IP, Day 0, L, 24-hour exposure, 0 min): 0% | Percent Insecticide Mortality ([2]; 50 × 1 mg/kg IP, Day 0, L, 48-hour exposure): 0% | Percent Insecticide Mortality ([2]; 50 × 1 mg/kg IP, Day 1, L, 24-hour exposure): 10% | Percent Insecticide Mortality ([2]; 50 × 1 mg/kg IP, Day 1, L, 48-hour exposure): 10% | Percent Insecticide Mortality ([2]; 50 × 1 mg/kg IP, Day 2, L, 24-hour exposure, 2880 min): 20% | Percent Insecticide Mortality ([2]; 50 × 1 mg/kg IP, Day 2, L, 48-hour exposure): 20% | Percent Insecticide Mortality ([2]; 50 × 1 mg/kg IP, Day 3, L, 24-hour exposure, 4320 min): 20% | Percent Insecticide Mortality ([2]; 50 × 1 mg/kg IP, Day 3, L, 48-hour exposure): 20% | Percent Insecticide Mortality ([2]; 50 × 1 mg/kg IP, Day 4, L, 24-hour exposure, 5760 min): 10% | Percent Insecticide Mortality ([2]; 50 × 1 mg/kg IP, Day 4, L, 48-hour exposure): 20% | Percent Insecticide Mortality ([2]; 50 × 1 mg/kg IP, Day 5, L, 24-hour exposure, 7200 min): 10% | Percent Insecticide Mortality ([2]; 50 × 1 mg/kg IP, Day 5, L, 48-hour exposure): 25% | Percent Insecticide Mortality ([2]; 50 × 1 mg/kg IR, 35 min, L, 24-hour exposure): 0% | Percent Insecticide Mortality ([2]; 50 × 1 mg/kg IR, 35 min, L, 48-hour exposure): 0% | Percent Insecticide Mortality ([2]; 50 × 1 mg/kg IR, 5 hr, L, 24-hour exposure): 40% | Percent Insecticide Mortality ([2]; 50 × 1 mg/kg IR, 5 hr, L, 48-hour exposure): 75% | Percent Insecticide Mortality ([2]; 50 × 1 mg/kg IR, Day 0, L, 24-hour exposure, 0 min): 0% | Percent Insecticide Mortality ([2]; 50 × 1 mg/kg IR, Day 0, L, 48-hour exposure): 0% | Percent Insecticide Mortality ([2]; 50 × 1 mg/kg IR, Day 1, L, 24-hour exposure): 90% | Percent Insecticide Mortality ([2]; 50 × 1 mg/kg IR, Day 1, L, 48-hour exposure): 100% | Percent Insecticide Mortality ([2]; 50 × 1 mg/kg IR, Day 2, L, 24-hour exposure, 2880 min): 90% | Percent Insecticide Mortality ([2]; 50 × 1 mg/kg IR, Day 2, L, 48-hour exposure): 100% | Percent Insecticide Mortality ([2]; 50 × 1 mg/kg IR, Day 3, L, 24-hour exposure, 4320 min): 80% | Percent Insecticide Mortality ([2]; 50 × 1 mg/kg IR, Day 3, L, 48-hour exposure): 100% | Percent Insecticide Mortality ([2]; 50 × 1 mg/kg IR, Day 4, L, 24-hour exposure, 5760 min): 40% | Percent Insecticide Mortality ([2]; 50 × 1 mg/kg IR, Day 4, L, 48-hour exposure): 40% | Percent Insecticide Mortality ([2]; 50 × 1 mg/kg IR, Day 5, L, 24-hour exposure, 7200 min): 20% | Percent Insecticide Mortality ([2]; 50 × 1 mg/kg IR, Day 5, L, 48-hour exposure): 25%

Reference: US5362634A, “Process for producing A83543 compounds” (DowElanco, priority 1991, dated 1994)
